Data: US20090311217A1, “3-SUBSTITUTED-1H-INDOLE COMPOUNDS, THEIR USE AS MTOR KINASE AND PI3 KINASE INHIBITORS, AND THEIR SYNTHESES” (priority 2008, published 2009)
pIC50: −log10 of the molar value. Where two headings read alike, the source gives them in different places.

Key:
[1] = molecular target: PI3K-alpha (Homo sapiens, UniProt P42336); test: PI3K-alpha fluorescence polarization assay; type: biochemical
[2] = molecular target: PI3K-gamma (Homo sapiens, UniProt P48736); test: PI3K-gamma fluorescence polarization assay; type: biochemical
In short: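 FP competition read-out: PIP3 produced displaces BODIPY-TMR-IP4 (5 nM) from GST-GRP1 PH domain (100 nM). Kinase step: 5 ng enzyme, 2.5 μM diC8-PIP2, 25 μM ATP, pH 7 HEPES/MgCl2, 1 h, 25° C; EDTA stop.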

Sequence of PI3K-alpha (P42336 whole entry, species assumed): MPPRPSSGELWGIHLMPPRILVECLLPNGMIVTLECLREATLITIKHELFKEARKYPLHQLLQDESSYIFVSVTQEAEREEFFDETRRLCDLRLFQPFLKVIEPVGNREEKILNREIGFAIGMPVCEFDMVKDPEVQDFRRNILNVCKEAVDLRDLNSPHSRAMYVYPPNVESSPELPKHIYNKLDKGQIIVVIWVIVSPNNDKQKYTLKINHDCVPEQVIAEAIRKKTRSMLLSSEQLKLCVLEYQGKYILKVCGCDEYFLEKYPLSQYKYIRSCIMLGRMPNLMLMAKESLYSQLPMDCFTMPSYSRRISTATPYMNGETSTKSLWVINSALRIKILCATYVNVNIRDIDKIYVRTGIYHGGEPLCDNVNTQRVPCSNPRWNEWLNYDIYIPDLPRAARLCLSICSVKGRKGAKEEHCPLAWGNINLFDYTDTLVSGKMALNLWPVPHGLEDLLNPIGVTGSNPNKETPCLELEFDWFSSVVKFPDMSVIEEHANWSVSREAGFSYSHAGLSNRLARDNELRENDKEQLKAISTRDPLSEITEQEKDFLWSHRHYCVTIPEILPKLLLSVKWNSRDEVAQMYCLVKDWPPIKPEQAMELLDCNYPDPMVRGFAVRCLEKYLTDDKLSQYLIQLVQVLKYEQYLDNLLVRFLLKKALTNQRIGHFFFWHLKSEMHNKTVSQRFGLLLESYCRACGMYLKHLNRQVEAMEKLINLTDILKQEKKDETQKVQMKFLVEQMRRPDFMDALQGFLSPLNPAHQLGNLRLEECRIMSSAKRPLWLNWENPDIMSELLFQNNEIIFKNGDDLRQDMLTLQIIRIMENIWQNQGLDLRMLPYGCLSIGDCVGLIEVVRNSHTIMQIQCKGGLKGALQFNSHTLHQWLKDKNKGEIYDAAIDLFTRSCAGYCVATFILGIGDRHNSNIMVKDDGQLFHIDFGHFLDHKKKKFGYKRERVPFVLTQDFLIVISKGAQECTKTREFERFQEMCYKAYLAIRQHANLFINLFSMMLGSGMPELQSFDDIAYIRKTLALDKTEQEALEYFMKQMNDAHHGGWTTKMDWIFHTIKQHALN
Sequence of PI3K-alpha (P27986 whole entry partner, species assumed): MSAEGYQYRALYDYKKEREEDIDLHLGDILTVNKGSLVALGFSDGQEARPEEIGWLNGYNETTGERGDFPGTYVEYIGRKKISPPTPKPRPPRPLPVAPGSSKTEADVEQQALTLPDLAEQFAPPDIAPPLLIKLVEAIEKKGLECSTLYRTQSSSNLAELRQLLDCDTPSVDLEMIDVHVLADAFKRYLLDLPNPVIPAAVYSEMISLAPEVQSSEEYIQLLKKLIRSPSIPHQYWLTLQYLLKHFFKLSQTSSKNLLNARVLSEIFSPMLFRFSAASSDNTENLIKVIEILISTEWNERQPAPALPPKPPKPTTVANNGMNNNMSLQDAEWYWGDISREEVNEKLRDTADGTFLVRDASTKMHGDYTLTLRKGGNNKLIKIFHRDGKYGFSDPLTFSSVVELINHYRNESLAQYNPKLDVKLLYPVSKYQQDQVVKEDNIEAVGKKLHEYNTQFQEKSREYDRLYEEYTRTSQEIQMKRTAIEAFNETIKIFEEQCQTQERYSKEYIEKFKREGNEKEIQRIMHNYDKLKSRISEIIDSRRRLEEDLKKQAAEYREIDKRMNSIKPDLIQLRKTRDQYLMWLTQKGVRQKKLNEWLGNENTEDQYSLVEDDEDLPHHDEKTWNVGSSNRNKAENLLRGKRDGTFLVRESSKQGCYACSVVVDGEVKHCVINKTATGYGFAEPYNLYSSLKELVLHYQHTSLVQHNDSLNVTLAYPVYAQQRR
Sequence of PI3K-gamma (P48736 whole entry, species assumed, the tested form may be a part): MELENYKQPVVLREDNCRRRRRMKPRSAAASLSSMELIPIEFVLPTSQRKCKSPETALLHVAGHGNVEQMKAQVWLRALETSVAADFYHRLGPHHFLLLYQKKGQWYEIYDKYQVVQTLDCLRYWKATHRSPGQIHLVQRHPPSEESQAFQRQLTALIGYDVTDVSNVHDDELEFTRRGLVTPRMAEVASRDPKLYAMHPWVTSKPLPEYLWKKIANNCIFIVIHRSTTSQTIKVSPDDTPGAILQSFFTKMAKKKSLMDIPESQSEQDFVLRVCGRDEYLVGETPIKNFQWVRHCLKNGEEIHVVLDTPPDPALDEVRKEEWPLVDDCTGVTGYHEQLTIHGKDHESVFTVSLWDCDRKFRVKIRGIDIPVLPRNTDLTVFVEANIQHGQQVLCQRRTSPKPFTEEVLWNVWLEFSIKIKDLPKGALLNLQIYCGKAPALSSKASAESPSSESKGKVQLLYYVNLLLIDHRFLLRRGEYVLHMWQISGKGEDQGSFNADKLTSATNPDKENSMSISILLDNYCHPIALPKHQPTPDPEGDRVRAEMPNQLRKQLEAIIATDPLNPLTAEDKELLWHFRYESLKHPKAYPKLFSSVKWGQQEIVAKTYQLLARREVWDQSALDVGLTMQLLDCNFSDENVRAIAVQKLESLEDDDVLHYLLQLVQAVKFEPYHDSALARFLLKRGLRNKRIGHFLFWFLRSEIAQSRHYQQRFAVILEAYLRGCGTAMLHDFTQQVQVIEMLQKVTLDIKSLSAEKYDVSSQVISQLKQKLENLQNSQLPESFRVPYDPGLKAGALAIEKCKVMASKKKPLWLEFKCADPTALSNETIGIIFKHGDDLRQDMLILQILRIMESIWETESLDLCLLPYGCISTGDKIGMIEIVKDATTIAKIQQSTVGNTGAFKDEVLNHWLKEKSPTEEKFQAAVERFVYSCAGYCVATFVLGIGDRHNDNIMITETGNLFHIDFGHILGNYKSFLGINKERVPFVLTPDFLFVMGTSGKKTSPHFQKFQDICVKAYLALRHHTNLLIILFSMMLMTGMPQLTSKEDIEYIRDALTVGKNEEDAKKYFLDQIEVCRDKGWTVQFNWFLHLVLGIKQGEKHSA

Row | Molecule | pIC50 ([1]; PI3Kα Avg. IC50) | pIC50 ([2]; PI3Kγ Avg. IC50) | pIC50 ([1]; read-out: PI3Kα Avg. IC50) | pIC50 ([2]; read-out: PI3Kγ Avg. IC50)
1 | O=C1/C(=C/c2c(-c3ccc(F)cc3)[nH]c3ccccc23)Oc2c(O)cccc21 [Example 68, (2Z)-2-{[2-(4-fluorophenyl)-1H-indol-3-yl]methylene}-7-hydroxy-1-benzofuran-3(2H)-one] | 6.32 | 6.31 |  | 
2 | COc1ccc2c(c1)c(/C=C1\Oc3ccc(O)cc3C1=O)cn2CCCC#N [Compound 514, 4-{3-[(Z)-(5-hydroxy-3-oxo-1-benzofuran-2(3H)-ylidene)methyl]-5-methoxy-1Hindol-1-yl}butanenitrile] |  | 5.39 | 5.86 | 
3 | 4-hydroxy-2-[(1-{2-[4-(2-hydroxyethyl)piperazin-1-yl]ethyl}-5-methoxy-2-methyl-1H-indol-3-yl)methylene]-1-benzofuran-3(2H)-one [Example 131] |  |  | 6.32 | 5.40
4 | Cn1cc(C=C2Oc3cc(O)cc(O)c3C2=O)c2c(-c3ccccc3)cccc21 (single isomer, unassigned) [Compound 544, (2E)-4,6-dihydroxy-2-[(1-methyl-4-phenyl-1H-indol-3-yl)methylene]-1-benzofuran-3(2H)-one-(2Z)-4,6-dihydroxy-2-[(1-methyl-4-phenyl-1H-indol-3-yl)methylene]-1-benzofuran-3(2H)-one (1:1)] |  | 5.67 | 6.58 | 
5 | CNC(=O)Nc1ccc2c(c1)C(=O)/C(=C/c1c(C)n(CCN(C)C)c3ccc(OC)cc13)O2 [Compound 610, 1-[(2Z)-2-({1-[2-(dimethylamino)ethyl]-5-methoxy-2-methyl-1H-indol-3-yl}methylidene)-3-oxo-2,3-dihydro-1-benzofuran-5-yl]-3-methylurea] |  | 6.97 | 7.94 | 
6 | CCc1cc(OC)cc2c(/C=C3\Oc4cc(O)cc(O)c4C3=O)cn(CCN3CCN(C)CC3)c12 [Compound 512, (2Z)-2-({7-ethyl-5-methoxy-1-[2-(4-methylpiperazin-1-yl)ethyl]-1H-indol-3-yl}methylene)-4,6-dihydroxy-1-benzofuran-3(2H)-one] |  | 5.85 | 7.44 | 
7 | CNC(=O)Nc1ccc2c(c1)C(=O)/C(=C/c1c[nH]c3c(/C=C/CN4CCN(C)CC4)cc(OC)cc13)O2 [Compound 594, 1-[(2Z)-2-({5-methoxy-7-[(1E)-3-(4-methylpiperazin-1-yl)prop-1-en-1-yl]-1Hindol-3-yl}methylene)-3-oxo-2,3-dihydro-1-benzofuran-5-yl]-3-methylurea] |  | 5.66 | 7.13 | 
8 | CNC(=O)Nc1ccc2c(c1)C(=O)/C(=C/c1cn(CCCC#N)c3ccc(OC)cc13)O2 [Compound 579, 1-[(2Z)-2-{[1-(3-cyanopropyl)-5-methoxy-1H-indol-3-yl]methylene}-3-oxo-2,3-dihydro-1-benzofuran-5-yl]-3-methylurea] |  | 6.89 | 7.52 | 
9 | COc1ccc2c(c1)c(/C=C1\Oc3ccc(NC(=O)NCCN)cc3C1=O)cn2CCN1CCN(C)CC1 [Compound 549, 1-(2-aminoethyl)-3-[(2Z)-2-({5-methoxy-1-[2-(4-methylpiperazin-1-yl)ethyl]-1Hindol-3-yl}methylene)-3-oxo-2,3-dihydro-1-benzofuran-5-yl]urea] |  | 5.53 | 7.87 | 
10 | COc1cc(-c2cncnc2)c2c(c1)c(/C=C1\Oc3cc(O)cc(O)c3C1=O)cn2CCCC#N [Compound 503, 4-{3-[(Z)-(4,6-dihydroxy-3-oxo-1-benzofuran-2(3H)-ylidene)methyl]-5-methoxy-7-pyrimidin-5-yl-1H-indol-1-yl}butanenitrile] |  | 6.09 | 6.97 | 
11 | 4-hydroxy-2-{[5-methoxy-2-methyl-1-(2-morpholin-4-ylethyl)-1H-indol-3-yl]methylene}-1-benzofuran-3(2H)-one [Example 130] |  |  | 6.19 | 5.38
12 | CNC(=O)Nc1ccc2c(c1)C(=O)/C(=C/c1c(C(=O)N(C)CCN(C)C)[nH]c3ccc(OC)cc13)O2 [Compound 602, N-[2-(dimethylamino)ethyl]-5-methoxy-N-methyl-3-[(Z)-{5-[(methylcarbamoyl)amino]-3-oxo-1-benzofuran-2(3H)-ylidene}methyl]-1H-indole-2-carboxamide] |  | 6.50 | 7.39 | 
13 | COc1ccc2[nH]cc(/C=C3\Oc4ccc(NC(=O)NC5CCCCC5)cc4C3=O)c2c1 [Compound 488, 1-cyclohexyl-3-{(2Z)-2-[(5-methoxy-1H-indol-3-yl)methylene]-3-oxo-2,3-dihydro-1-benzofuran-5-yl}urea] |  | < 5.00 | < 5.00 | 
14 | O=C1/C(=C/c2c(-c3ccccc3)[nH]c3ccccc23)Sc2ccccc21 [Example 274, (2Z)-2-[(2-phenyl-1H-indol-3-yl)methylene]-1-benzothiophen-3(2H)-one] |  | 6.59 | 6.54 | 
15 | COc1ccc2[nH]cc(C=C3Oc4c(O)cccc4C3=O)c2c1 [Compound 482, 7-hydroxy-2-[(5-methoxy-1H-indol-3-yl)methylene]-1-benzofuran-3(2H)-one] |  | < 5.00 | < 5.00 | 
16 | O=C1/C(=C/c2cn(CCO)c3cccc(-c4ccccc4)c23)Oc2cc(O)cc(O)c21 [Compound 478, (2Z)-4,6-dihydroxy-2-{[1-(2-hydroxyethyl)-4-phenyl-1H-indol-3-yl]methylene}-1-benzofuran-3(2H)-one] |  | 5.76 | 5.92 | 

Row | Molecule | pIC50 ([1]; PI3Kα Avg. IC50) | pIC50 ([2]; PI3Kγ Avg. IC50) | pIC50 ([1]; read-out: PI3Kα Avg. IC50) | pIC50 ([2]; read-out: PI3Kγ Avg. IC50)
17 | COc1ccc2c(c1)c(/C=C1\Oc3ccc(O)cc3C1=O)cn2CCCN(C)C [Compound 515, (2Z)-2-({1-[3-(dimethylamino)propyl]-5-methoxy-1H-indol-3-yl}methylene)-5-hydroxy-1-benzofuran-3(2H)-one] |  | 5.60 | 5.93 | 
18 | COc1ccc2[nH]c(-c3ccccc3)c(C=C3Oc4c(ccc(O)c4O)C3=O)c2c1 [Example 71, 6,7-dihydroxy-2-[(5-methoxy-2-phenyl-1H-indol-3-yl)methylene]-1-benzofuran-3(2H)-one] |  | 6.36 | 7.13 | 
19 | CNC(=O)Nc1ccc2c(c1)C(=O)/C(=C/c1cn(CCCN3CCOCC3)c3ccc(OC)cc13)O2 [Compound 580, 1-[(2Z)-2-{[5-methoxy-1-(3-morpholin-4-ylpropyl)-1H-indol-3-yl]methylene}-3-oxo-2,3-dihydro-1-benzofuran-5-yl]-3-methylurea] |  | 5.87 | 7.28 | 
20 | COc1ccc2[nH]cc(C=C3Oc4cc(O)cc(-c5ccccc5)c4C3=O)c2c1 [Compound 504, 6-hydroxy-2-[(5-methoxy-1H-indol-3-yl)methylene]-4-phenyl-1-benzofuran-3(2H)-one] |  | 6.27 | 6.91 | 
21 | COc1ccc2c(c1)c(/C=C1\Oc3ccc(NC(=O)NC4CC4)cc3C1=O)cn2CCCN(C)C [Compound 560, 1-cyclopropyl-3-[(2Z)-2-({1-[3-(dimethylamino)propyl]-5-methoxy-1H-indol-3-yl}methylene)-3-oxo-2,3-dihydro-1-benzofuran-5-yl]urea] |  | 5.80 | 6.88 | 
22 | COc1ccc2c(c1)c(/C=C1\Oc3cc(O)ccc3C1=O)cn2CCCC#N [Compound 511, 4-{3-[(Z)-(6-hydroxy-3-oxo-1-benzofuran-2(3H)-ylidene)methyl]-5-methoxy-1Hindol-1-yl}butanenitrile] |  | 6.81 | 7.68 | 
23 | CNC(=O)c1cc(O)cc2c1C(=O)/C(=C/c1c[nH]c3ccc(OC)cc13)O2 [Compound 513, (2Z)-6-hydroxy-2-[(5-methoxy-1H-indol-3-yl)methylene]-N-methyl-3-oxo-2,3-dihydro-1-benzofuran-4-carboxamide] |  | < 5.00 | 5.81 | 
24 | COc1ccc2[nH]cc(/C=C3\Oc4ccc(NC(=O)Nc5ccccc5)cc4C3=O)c2c1 [Compound 485, 1-{(2Z)-2-[(5-methoxy-1H-indol-3-yl)methylene]-3-oxo-2,3-dihydro-1-benzofuran-5-yl}-3-phenylurea] |  | < 5.00 | < 5.00 | 
25 | CCNC(=O)Nc1ccc2c(c1)C(=O)/C(=C/c1c[nH]c3ccc(OC)cc13)O2 [Compound 489, 1-ethyl-3-{(2Z)-2-[(5-methoxy-1H-indol-3-yl)methylene]-3-oxo-2,3-dihydro-1-benzofuran-5-yl}urea] |  | < 5.00 | 5.21 | 
26 | CNCCNC(=O)Nc1ccc2c(c1)C(=O)/C(=C/c1c(C3CCCCC3)n(CCN3CCN(C)CC3)c3ccc(OC)cc13)O2 [Compound 584, 1-[(2Z)-2-({2-cyclohexyl-5-methoxy-1-[2-(4-methylpiperazin-1-yl)ethyl]-1H-indol-3-yl}methylene)-3-oxo-2,3-dihydro-1-benzofuran-5-yl]-3-[2-(methylamino)ethyl]urea] |  | 7.59 | 8.96 | 
27 | COc1ccc2c(c1)c(/C=C1\Oc3ccc(O)cc3C1=O)c(C)n2CCN1CCN(C)CC1 [Compound 519] |  | 5.22 | 6.56 | 
28 | COc1ccc2c(c1)c(C=C1Oc3c(ccc(O)c3O)C1=O)c(C)n2CCCCl [Example 124, 2-{[1-(3-chloropropyl)-5-methoxy-2-methyl-1H-indol-3-yl]methylene}-6,7-dihydroxy-1-benzofuran-3(2H)-one] |  | 5.91 | 7.19 | 
29 | COc1ccc2[nH]cc(/C=C3\Oc4ccc(C#N)cc4C3=O)c2c1 [Compound 523, (2Z)-2-[(5-methoxy-1H-indol-3-yl)methylene]-3-oxo-2,3-dihydro-1-benzofuran-5-carbonitrile] |  | < 5.00 | < 5.00 | 
30 | COc1ccc2[nH]cc(/C=C3\Oc4cc(-c5nn[nH]n5)ccc4C3=O)c2c1 [Compound 509, (2Z)-2-[(5-methoxy-1H-indol-3-yl)methylene]-6-(2H-tetrazol-5-yl)-1-benzofuran-3(2H)-one] |  | 5.61 | 6.32 | 
31 | COc1ccc2c(c1)c(/C=C1\Oc3ccc(NC(N)=O)cc3C1=O)cn2CCN1CCN(C)CC1 [Compound 551, 1-[(2Z)-2-({5-methoxy-1-[2-(4-methylpiperazin-1-yl)ethyl]-1H-indol-3-yl}methylene)-3-oxo-2,3-dihydro-1-benzofuran-5-yl]urea] |  | 5.50 | 6.72 | 
